US20040002460A1, “Spheron components useful in determining compounds capable of treating symptoms of Alzheimer's disease, and treatments and animal models produced therefrom” (priority 2002, published 2004)

Assay: in vitro
Experimental: The spheron component peptides in phosphate buffered saline (PBS) were incubated alone and in combination into glioma cell cultures and neuroblastoma cell cultures. Controls of
Cryopreserved glioma and neuroblastoma cells were acquired from the American Type Culture Collection (ATCC), Virginia. Cells were thawed and diluted in suspension media and centrifuged at 700 rpm for 7 minutes at 4 C. Cell pellets then were resuspended in CACO-2 media and cultured in standard 75 or 175 cm^2 flasks at 37 C, 5% CO(2) until approximately confluent. The cells were then trypsinized and resuspended in CACO-2 media to achieve a final cell density of 1.5×10^5 cells/mL. 50 μL aliquots per sample were then added per well to 96 well plates.
For Experiment I, 50 μL of either PBS (phosphate buffered solution) (negative control), 100 μM tamoxifen in phosphate buffered saline PBS (positive control), or test article were added to each sample culture.
An MTT assay is a sensitive assay for the measurement of cell proliferation based upon the reduction of the tetrazolium salt 3,[4,5-dimetylthiazol-2-yl]-2,5-diphenyltetrazolium bromide (MTT). […] Plates were then agitated gently for 1 minute on a rotary shaker and the difference between emission absorbance of 570 nm and background absorbance of 650 nm was measured spectrophotometrically on an automated plate reader. […]

`CC/C(=C(\c1ccccc1)c1ccc(OCCN(C)C)cc1)c1ccccc1` [Tamoxifen, tamoxifen] showed a viability at 4 days, 100 µM of 63%.
